From patent US20220304976A1, “Method of simultaneously treating viral disease caused coronavirus, its variants and mutants using a pharmaceutical micronutrient composition” (priority 2021, published 2022)

Tested on: A549 cells expressing SARS-CoV-2 spike protein fusing with A549 cells overexpressing hACE2
Format: cell-based, human

Compound	reduction of cell-cell fusion (in words)	decrease of cell attachment (cell-cell fusion) [%]
Theaflavine-3′3-digallate	can reduce cell-cell fusion	–
COc1cc(/C=C/C(=O)CC(=O)/C=C/c2ccc(O)c(OC)c2)ccc1O [Curcumin]	can reduce cell-cell fusion	–
Oc1ccc2c(c1)OC[C@]1(O)Cc3cc(O)c(O)cc3[C@H]21 [Brazilin]	can reduce cell-cell fusion	40
